In patent US10285956B2, “N-(2-aminoethyl) ethanolamine (AEEA) and analogs to treat hypertrophic scarring and liposomal topical delivery” (BOARD OF REGENTS, THE UNIVERSITY OF TEXAS SYSTEM, priority 2016, dated 2019):

How the values were obtained:
collagen type 1 = assay: Collagen type 1 extractability, sequential denaturing ECM extraction (RIPA then urea), Western blot densitometry; format: cell-based, human; conditions: for increased extractability of collagen type 1 (by densitometry): 14 day exposure, HS fibroblasts, urea lysis buffer
Protocol: Preparation of Decellularized Matrix Scaffold, or Extracellular Matrix (ECM): The methods for isolation and characterization of the matrix of skin cells (fibroblastic-type cells) derived from normal (N Fb) and those derived from hypertrophic scar (HS Fb), as well as an embryonic fibroblast (E Fb) as a further control for comparison by the present inventors; these basic methods can be followed in the characterization of mechanism(s) of HS. Briefly, fibroblast-like cells are cultured on 13 mm diameter Nunc™ Thermanox™ Coverslips (Catalog #174950) in 24-well cell culture plates in DMEM supplemented with 13% FCS, antibiotics, and 50 μg/ml of sodium ascorbate; cells are seeded at the number that cell density reaches 70% confluence in 24 hours. AEEA treatments start before the formation of ECM, at the second day post passage. Sodium ascorbate, which is the crucial cofactor of lysyl oxidase (LOX), lysyl hydroxylase, and proline hydroxylase (to be assayed), is added daily, 5 days/week, to stimulate ECM assembly. AEEA is changed with culture media (every 3 days). […] The next day, water is replaced with PBS, and the preparation is ready for AFM, or other biochemical, molecular or proteomic studies as described below. […]
Total collagen content of the matrix can be determined by established extraction procedures and a dye-binding method based on the specific binding of Sirius Red dye to the [Gly-X-Y]n helical structure of collagen types I to XIV. […] Elastin can be determined in separate samples as soluble tropoelastin utilizing a dye binding assay (Accurate Chemical Corp., Westbury, N.Y.) and as insoluble elastin by repeated salt and alkali extraction as previously described. The effects of AEEA on collagen and other extra-cellular protein abundances can be further evaluated by using the normal human neonatal primary dermal fibroblast (ATCC® PCS-201-010™), and normal skin fibroblasts (NS Fb), and also hypertrophic scar fibroblasts (HS Fb) derived from skin of the other clinically evident HS developed by patients. […]

triple helical collagen = assay: Native (non-denaturing) gel of collagen tertiary structure (triple helix) in HS cells; format: cell-based, human; conditions: for TGFβ1 effect: increase in triple helical collagen: TGFβ1 exposure last 4 days
Protocol: Native lysis buffer uses digitonin; see text. […] TGFβ1 treatment (4 days) increases mature (triple helical) structure, while changing monomer ratio, an effect that is mimicked by AEEA-alone at 25 μM but not at 50 μM (see text and FIG. 7 re: fibronectin). TGFβ1 effect appears attenuated by 50 μM AEEA.
PGK1/2 is fraction marker. […] These collagen aberrations were then examined with non-denaturing, or “native” gels (FIG. 5). “Native” or “non-denaturing” gel electrophoresis is run in non-denaturing conditions, i.e., in the absence of any charged denaturing agents, such as SDS; and reducing agent. Native gel allows for the protein's natural structure to be maintained. Thus, the physical size of the folded or assembled complex affects mobility. In SDS-PAGE, the electrophoretic mobility of proteins depends primarily on their molecular mass alone; in native gel the mobility also depends on both the protein's charge and its hydrodynamic size. The native lysis buffer used contains: 50 mM Tris-HCl, pH 7.5; 150 mM NaCl and 1% Digitonin.
However this finding is not present at 50 μM AEEA. Following 25 μM AEEA alone, a 6-fold increase was seen. The triple helical structure in the presence of both AEEA and TGFβ1 appeared relatively diminished.
Total collagen content of the matrix can be determined by established extraction procedures and a dye-binding method based on the specific binding of Sirius Red dye to the [Gly-X-Y]n helical structure of collagen types I to XIV. The method has virtually an exact correlation with analytic methods for hydroxyproline content. Elastin can be determined in separate samples as soluble tropoelastin utilizing a dye binding assay (Accurate Chemical Corp., Westbury, N.Y.) and as insoluble elastin by repeated salt and alkali extraction as previously described. The effects of AEEA on collagen and other extra-cellular protein abundances can be further evaluated by using the normal human neonatal primary dermal fibroblast (ATCC® PCS-201-010™), and normal skin fibroblasts (NS Fb), and also hypertrophic scar fibroblasts (HS Fb) derived from skin of the other clinically evident HS developed by patients. Time course and dose response studies can also be used to test the effects of AEEA on stability of those proteins, by Western blotting, to see if it is degraded more quickly in the AEEA treated cells. For Western Blot, cultured N Fb and FS Fb grown and treated with AEEA as described above can be gently washed with 4° C. pre-chilled PBS. The plate is then placed on the surface of a −20° C. ice block. […] The protein concentrations of the samples extracted with RIPA measured by with the DC™ protein assay kit (Bio-Rad Laboratories, Inc. USA), while the protein of remaining extracts is quantitated with the BCA protein assay (Pierce). […]

α-SMA = α-SMA Western blot in normal (N) and HS skin fibroblasts; format: cell-based, human
Description: GAPDH is loading control. […] GAPDH is loading control. […] The effects of AEEA on collagen and other extra-cellular protein abundances can be further evaluated by using the normal human neonatal primary dermal fibroblast (ATCC® PCS-201-010™), and normal skin fibroblasts (NS Fb), and also hypertrophic scar fibroblasts (HS Fb) derived from skin of the other clinically evident HS developed by patients. Time course and dose response studies can also be used to test the effects of AEEA on stability of those proteins, by Western blotting, to see if it is degraded more quickly in the AEEA treated cells. For Western Blot, cultured N Fb and FS Fb grown and treated with AEEA as described above can be gently washed with 4° C. pre-chilled PBS. The plate is then placed on the surface of a −20° C. ice block. […] Therefore, samples are serially extracted with RIPA buffer, urea extraction buffer and then 0.5 M acetic acid; or, with native sample buffer, as described above. […] The protein concentrations of the samples extracted with RIPA measured by with the DC™ protein assay kit (Bio-Rad Laboratories, Inc. USA), while the protein of remaining extracts is quantitated with the BCA protein assay (Pierce). […] Signals are recorded on film (CL-XPousure™ film, Thermo Scientific) by using ECL™ Western blot detection reagents (Amersham Biosciences, RPN2209).

fibronectin = assay: Fibronectin extractability, denaturing gel following digitonin, HS cells; format: cell-based, human
Protocol: Increased extractability of fibronectin induced by TGFβ1, with little effect of AEEA at 25 or 50 μM. However, the TGFβ1 enhancement of fibronectin is blocked by 50 μM AEEA (last two lanes). Fibronectin, a critical cell adhesion molecule, is implicated in HS. […] See text for densitometric analysis, FIGS. 3-7.

Integrins αV and β5 = Integrins αV and β5 extractability, denaturing gel, HS cells; format: cell-based, human
Description: (§1) In the native gel, intensities of integrin bands are not changed in a parallel fashion to that in denaturing gels, which may be the result of intramolecular alterations.
(§2) […] In FIG. 6, the effect of AEEA on fibronectin, integrins αV and β5, and N-cadherin is examined, which have all been implicated in the development of HS. In a denaturing gel, TGFβ1 and AEEA exposure has a similar effect of increasing extractability of integrins and, to some extent, N-cadherin. […] Most interesting are interactions between AEEA and TGFβ1 with regard to HS cell expression of fibronectin, a critical molecule in cell adhesion, growth, migration, and differentiation, which is implicated in HS.

N-Cadherin = assay: Extractable N-Cadherin, denaturing gel, HS cells; format: cell-based, human; conditions: especially with both AEEA and TGFβ1
Description: as §1, §2

skin fibroblasts = assay: Scanning EM of interstitial matrix (skin fibroblasts removed); format: cell-based, human; conditions: AEEA 5, 10 mM, cells removed
Protocol: Briefly, fibroblast-like cells are cultured on 13 mm diameter Nunc™ Thermanox™ Coverslips (Catalog #174950) in 24-well cell culture plates in DMEM supplemented with 13% FCS, antibiotics, and 50 μg/ml of sodium ascorbate; cells are seeded at the number that cell density reaches 70% confluence in 24 hours. AEEA treatments start before the formation of ECM, at the second day post passage. Sodium ascorbate, which is the crucial cofactor of lysyl oxidase (LOX), lysyl hydroxylase, and proline hydroxylase (to be assayed), is added daily, 5 days/week, to stimulate ECM assembly. AEEA is changed with culture media (every 3 days). […] After 14 days of culture, the resulting tissue sheets are gently rinsed twice with PBS, and then incubated in sterile deionized water for 20 minutes at 4° C. to lyse the cells with hypotonic condition (decellularization). Matrix is rinsed free of cell debris, and ECM samples are kept overnight at 4° C.

[1] = Rat model of 30% scald burn, localized injections, adverse effect on skin or burn wound healing; format: in vivo
Protocol: To assess the possibility of an adverse AEEA effect on skin or burn wound healing, a rat model of 30% scald burn was utilized. AEEA was used to treat burns (or unburned skin as sham) by localized multiple injections (5 of 0.1 ml) of AEEA at 5.0 and 50.0 mM concentrations, which are 100- or 1,000-fold of the effective concentration in our cell culture, respectively, but is only 10% concentration of the rat DAA experiments by gavage.

[2] = in utero exposure; cited from earlier work

Compound	increased extractability of collagen type 1 (by densitometry) (collagen type 1; 25 μM AEEA) [fold]	increased extractability of collagen type 1 (by densitometry) (collagen type 1; 100 μM AEEA) [fold]	increase of Collagen I extractability, densitometrically (collagen type 1; human burn wound fibroblasts (from HS) cultured in 50 μM compound) [fold]	increase in triple helical collagen (triple helical collagen; 25 μM AEEA alone, 7 days, native gel) [fold]	TGFβ1 effect on triple helical collagen in presence of AEEA (triple helical collagen; 50 μM AEEA plus TGFβ1, 7 days)	α-SMA expression (α-SMA; 1-10 mM AEEA, 14 days, normal (N) and HS skin fibroblasts)	α-SMA expression (α-SMA; low (μM) AEEA doses, 14 day exposure, HS fibroblasts)	TGFβ1 enhancement of fibronectin in presence of AEEA (fibronectin; 50 μM AEEA plus TGFβ1, HS cells)	effect on extractability of fibronectin (fibronectin; AEEA at 25 or 50 μM alone, HS cells)	effect on Integrins αV and β5 (extractability) (Integrins αV and β5)	Extractable N-Cadherin (N-Cadherin)	appearance of interstitial matrix by SEM (skin fibroblasts)	localized skin or systemic effects ([1]; 5 injections of 0.1 ml at 5.0 and 50.0 mM, burns or unburned skin)	histology, AEEA sites vs vehicle (PBS buffer) sites ([1]; normal unburned skin or full thickness burns, 7 days post-burn)	finding in rat pups born to mother rats exposed in utero [2]	TGFβ1 effect: increase in triple helical collagen (triple helical collagen; 0.0 (control) AEEA, 7 days) [fold]	TGFβ1 effect: increase in triple helical collagen (triple helical collagen; with 25 μM AEEA, 7 days) [fold]	increased extractability of fibronectin (fibronectin; TGFβ1 alone, denaturing gel, HS cells) [fold]
NCCNCCO [AEEA, N-(2-aminoethyl) ethanolamine]	2	5	3	6	not present	loss of α-SMA	not down-regulated	blocked	little effect	increasing	increased	marked irregularities	no untoward localized skin or systemic effects	no qualitative or quantitative differences	dramatic dissecting aortic aneurysms	–	–	–
TGFβ1: transforming growth factor-β1, regulator of scarring used to treat HS cells [reference compound]	–	–	–	–	–	–	–	–	–	increasing	increased	–	–	–	–	10	16	5
